Laboratory results published in patent publication US20150110849A1, “ANTIMICROBIAL ACCESSORY FOR AN IMPLANTABLE MEDICAL DEVICE” (Medtronic, Inc., priority 2009, published 2015).
Where a name gives a salt, the structure may show the parent alone.

Test: zone of inhibition (ZOI) of antimicrobial accessories
Type: cell-based
Source text: Examples 30-54 illustrate zone of inhibition (ZOI) data collected for antimicrobial accessories including minocycline HCl and/or rifampin. Various polymers and excipients were used in combination with minocycline HCl and/or rifampin. […] In Table 22, M stands for minocycline HCl, R stands for rifampin, SiO2 is silica, PVP is polyvinylpyrrolidone, BIO-PSA 7-4601 is a silicone PSA available from Dow Corning Corp, Midland, Mich., MDX4-4210 is a liquid silicone rubber available from Dow Corning, Corp., Midland, Mich., LSR Q7-4850 is a liquid silicone rubber available from Dow Corning, Corp., Midland, Mich., and MED-1137 a silicone adhesive available from NuSil Silicone Technology, Carpinteria, Calif.

Compound	Average ZOI
CN(C)c1ccc(O)c2c1C[C@H]1C[C@H]3[C@H](N(C)C)C(O)=C(C(N)=O)C(=O)[C@@]3(O)C(O)=C1C2=O [Example 30, minocycline HCl]	16 mm
CO[C@H]1/C=C/O[C@@]2(C)Oc3c(C)c(O)c4c(O)c(c(/C=N/N5CCN(C)CC5)c(O)c4c3C2=O)NC(=O)/C(C)=C\C=C\[C@H](C)[C@H](O)[C@@H](C)[C@@H](O)[C@@H](C)[C@H](OC(C)=O)[C@@H]1C [Example 31, rifampin]	17 mm
